Assay results taken from ChEMBL document CHEMBL5053494, “Novel halogenated arylvinyl-1,2,4 trioxanes as potent antiplasmodial as well as anticancer agents: Synthesis, bioevaluation, structure-activity relationship and in-silico studies” (Eur J Med Chem, 2021).
Active and inactive are the calls of the source. No cut-off for these calls is given here.

Key:
Plasmodium falciparum [1] = test: Antiplasmodial activity against artemisinin-resistant Plasmodium falciparum Cam 3.1 R539 assessed as growth inhibition by SYBER green 1 dye based fluorescence assay; format: functional, organism-based
A549 = test: Anticancer activity against human A549 cells assessed as cell growth inhibition measured for 72 hrs by MTT assay; format: functional, cell-based; details: A549, 72 h
HepG2 = test: Anticancer activity against human HepG2 cells assessed as cell growth inhibition measured for 72 hrs by MTT assay; format: functional, cell-based; details: HepG2, 72 h
Plasmodium falciparum [2] = test: Resistance index, ratio of IC50 for antiplasmodial activity against artemisinin-resistant Plasmodium falciparum Cam 3.1 R539 to IC50 for antiplasmodial activity against chloroquine-resistant Plasmodium falciparum INDO; format: functional
[3] = Selectivity index, ratio of CC50 for human HEK293 cells to IC50 for antiplasmodial activity against chloroquine-resistant Plasmodium falciparum INDO; format: toxicity; details: HEK293 cells versus Plasmodium falciparum INDO
[4] = Cytotoxicity against human HEK293 cells assessed as cell viability measured for 24 hrs by MTT assay; format: cell-based
[5] = Selectivity ratio of IC50 for anticancer activity against human BEAS-2B cells to IC50 for anticancer activity against human A549 cells; format: toxicity, cell-based; details: BEAS-2B cells versus A549 cells, read-out: Ratio IC50
BEAS-2B = test: Anticancer activity against human BEAS-2B cells assessed as cell growth inhibition measured for 72 hrs by MTT assay; format: functional, cell-based
L02 = test: Anticancer activity against human L02 cells assessed as cell growth inhibition measured for 72 hrs by MTT assay; format: functional, cell-based; details: L02, 72 h
Plasmodium falciparum [6] = test: Antiplasmodial activity against chloroquine-resistant Plasmodium falciparum INDO assessed as growth inhibition by SYBER green 1 dye based fluorescence assay; format: functional, organism-based
[7] = Selectivity ratio of IC50 for anticancer activity against human L02 cells to IC50 for anticancer activity against human HepG2 cells; format: toxicity, cell-based; details: L02 cells versus HepG2 cells, read-out: Ratio IC50
Plasmodium falciparum [8] = test: Antiplasmodial activity against ring stage chloroquine resistant Plasmodium falciparum INDO assessed as percentage survival at 700 nM for 6 hrs by ring stage survival assay; format: functional
Plasmodium falciparum [9] = test: Antiplasmodial activity against ring stage chloroquine-resistant Plasmodium falciparum Cam 3.1 R539 assessed as percentage survival at 700 nM for 6 hrs by ring stage survival assay relative to control; format: functional
Plasmodium falciparum [10] = test: Antiplasmodial activity against ring stage chloroquine-resistant Plasmodium falciparum INDO assessed as percentage survival at 70 nM for 6 hrs by ring stage survival assay; format: functional, organism-based
Plasmodium falciparum [11] = test: Antiplasmodial activity against ring stage chloroquine-resistant Plasmodium falciparum Cam 3.1 R539 assessed as percentage survival at 70 nM for 6 hrs by ring stage survival assay; format: functional
Plasmodium berghei [12] = test: Antimalarial activity against Plasmodium berghei ANKA infected in Balb/c mouse assessed as suppression of parasitemia at 50 mg/kg, po administered for 4 days by microscopic analysis; format: functional; details: time 4 day
Plasmodium berghei [13] = test: Antimalarial activity against Plasmodium berghei ANKA infected in Balb/c mouse assessed as suppression of parasitemia at 50 mg/kg, ip administered for 4 days by microscopic analysis; format: functional; details: time 4 day

| Structure (SMILES) | IC50 (Plasmodium falciparum [1]) | IC50 (A549) | IC50 (HepG2) | Ratio IC50 (Plasmodium falciparum [2]) | selectivity ratio [3] | CC50 at 24 h [4] | selectivity ratio [5] | IC50 (BEAS-2B) | IC50 (L02) | IC50 (Plasmodium falciparum [6]) | selectivity ratio [7] | Activity (Plasmodium falciparum [8]) | Activity (Plasmodium falciparum [9]) | Activity (Plasmodium falciparum [10]) | Activity (Plasmodium falciparum [11]) | Activity (Plasmodium berghei [12]) | Activity (Plasmodium berghei [13]) |
| --- | --- | --- | --- | --- | --- | --- | --- | --- | --- | --- | --- | --- | --- | --- | --- | --- | --- |
| C=C(c1cc(Cl)cc(Cl)c1OCc1ccccc1)C1COC(C)(C)OO1 (stereo not drawn) | 0.0173 µM | 58.4 µM | 39.5 µM | 0.44 | 811 | 31.6 µM | 3.16 | 25.5 µM | 64.1 µM | 0.04 µM | 4.78 | – | – | – | – | – | – |
| C=C(c1ccc(Cl)c(Cl)c1Cl)C1COC(C)(C)OO1 (stereo not drawn) | – | 52.1 µM | 27.3 µM | – | – | – | 0.19 | 10.2 µM | 18.1 µM | > 0.1 µM | 0.14 | – | – | – | – | – | – |
| C=C(c1ccc(OC)c(F)c1)C1COC2(CCCC2)OO1 (stereo not drawn) | 0.0864 µM | 9.7 µM | 29.3 µM | 7.8 | 3000 | 33 µM | 5.75 | 55.8 µM | 18.5 µM | 0.0111 µM | 0.63 | – | – | – | – | – | – |
| C=C(c1ccc(Cl)cc1Cl)C1COC2(OO1)C1CC3CC(C1)CC2C3 (stereo not drawn) | 0.0462 µM | 9.92 µM | 17.2 µM | 2.99 | 989 | 14.8 µM | 1.02 | 10.2 µM | 12.5 µM | 0.0154 µM | 0.41 | – | – | – | – | – | – |
| C=C(c1ccc(Cl)c(Cl)c1)C1COC2(CCCCC2)OO1 (stereo not drawn) | – | 12.8 µM | 83.5 µM | – | – | – | 3.07 | 39.4 µM | 83.5 µM | > 0.1 µM | 2.37 | – | – | – | – | – | – |
| C=C(c1ccc(F)c(F)c1)C1COC2(CCCCC2)OO1 (stereo not drawn) | – | 7.88 µM | 28.6 µM | – | – | – | 1.26 | 61.2 µM | 16.5 µM | > 0.1 µM | 0.22 | – | – | – | – | – | – |
| C=C(c1cc(Cl)cc(Cl)c1OCc1ccccc1)C1COC2(CCCCC2)OO1 (stereo not drawn) | – | > 100 µM | > 100 µM | – | – | – | – | > 100 µM | > 100 µM | > 0.1 µM | – | – | – | – | – | – | – |
| C=C(c1ccc(Cl)c(Cl)c1Cl)C1COC2(OO1)C1CC3CC(C1)CC2C3 (stereo not drawn) | – | 15 µM | 34.4 µM | – | 1810 | 75.8 µM | 1.17 | 17.6 µM | 6.56 µM | 0.0421 µM | 0.66 | – | – | – | – | – | – |
| C[C@@H]1CC[C@H]2[C@@H](C)C(=O)O[C@@H]3O[C@@]4(C)CC[C@@H]1[C@]32OO4 [ARTEMISININ] | 0.0135 µM | 9.85 µM | 4.09 µM | 2.05 | 4330 | > 26 µM | 0.76 | 7.53 µM | 8.25 µM | 0.0066 µM | 2.01 | 10% | 20% | inactive | 50% | – | – |
| C=C(c1ccc(OC)c(F)c1)C1COC(C)(C)OO1 (stereo not drawn) | – | 100 µM | > 100 µM | – | – | – | – | 68.7 µM | > 100 µM | > 0.1 µM | 0.37 | – | – | – | – | – | – |
| C=C(c1ccc(F)cc1F)C1COC(C)(C)OO1 (stereo not drawn) | – | > 100 µM | > 100 µM | – | – | – | – | > 100 µM | > 100 µM | > 0.1 µM | – | – | – | – | – | – | – |
| C=C(c1ccc(Cl)c(Cl)c1)C1COC2(CCCC2)OO1 (stereo not drawn) | – | 4.68 µM | 62.6 µM | – | – | – | 10.9 | 50.9 µM | 8.45 µM | > 0.1 µM | 0.13 | – | – | – | – | – | – |
| C=C(c1ccc(F)c(F)c1)C1COC2(CCCC2)OO1 (stereo not drawn) | 0.196 µM | 11.7 µM | 38.6 µM | 7.36 | 895 | 23.3 µM | 7.76 | 73.6 µM | 8.84 µM | 0.0266 µM | 0.36 | – | – | – | – | – | – |
| C=C(c1ccc(F)cc1F)C1COC2(OO1)C1CC3CC(C1)CC2C3 (stereo not drawn) | – | 4.43 µM | 65.6 µM | – | – | – | 10.5 | 46.4 µM | 10.9 µM | > 0.1 µM | 0.16 | – | – | – | – | – | – |
| CC(=O)O[C@H]1C(=O)[C@@]2(C)[C@H]([C@H](OC(=O)c3ccccc3)[C@]3(O)C[C@H](OC(=O)[C@H](O)[C@@H](NC(=O)c4ccccc4)c4ccccc4)C(C)=C1C3(C)C)[C@]1(OC(C)=O)CO[C@@H]1C[C@@H]2O [PACLITAXEL] | – | – | 0.19 µM | – | – | – | – | < 0.1 µM | < 0.1 µM | – | – | – | – | – | – | – | – |
| C=C(c1cc(Cl)cc(Cl)c1OCc1ccccc1)C1COC2(OO1)C1CC3CC(C1)CC2C3 (stereo not drawn) | 0.043 µM | 31.6 µM | > 100 µM | 1.93 | 2770 | 60.9 µM | – | > 100 µM | > 100 µM | 0.0224 µM | 1.62 | – | – | – | – | – | – |
| C=C(c1ccc(F)cc1F)C1COC2(CCCCC2)OO1 (stereo not drawn) | – | > 100 µM | 36 µM | – | – | – | 11.5 | 49.7 µM | 17.6 µM | > 0.1 µM | – | – | – | – | – | – | – |
| C=C(c1ccc(F)c(F)c1)C1COC(C)(C)OO1 (stereo not drawn) | – | > 100 µM | > 100 µM | – | – | – | – | > 100 µM | > 100 µM | > 0.1 µM | – | – | – | – | – | – | – |
| C=C(c1ccc(Cl)cc1Cl)C1COC(C)(C)OO1 (stereo not drawn) | – | 92.6 µM | 90.5 µM | – | – | – | 0.74 | 68.6 µM | 37.7 µM | > 0.1 µM | 0.16 | – | – | – | – | – | – |
| C=C(c1ccc(F)cc1F)C1COC2(CCCC2)OO1 (stereo not drawn) | – | 5.09 µM | 15.4 µM | – | – | – | 12.3 | 62.6 µM | 17.6 µM | > 0.1 µM | 1.14 | – | – | – | – | – | – |
| C=C(c1ccc(Cl)c(Cl)c1)C1COC(C)(C)OO1 (stereo not drawn) | – | > 100 µM | > 100 µM | – | – | – | – | > 100 µM | 50.9 µM | > 0.1 µM | – | – | – | – | – | – | – |
| C=C(c1ccc(Cl)c(Cl)c1Cl)C1COC2(CCCCC2)OO1 (stereo not drawn) | – | 1.37 µM | 9.02 µM | – | – | – | 7.51 | 10.3 µM | 1.22 µM | > 0.1 µM | 0.72 | – | – | – | – | – | – |
| CCN(CC)CCCC(C)Nc1ccnc2cc(Cl)ccc12 (stereo not drawn) [CHLOROQUINE] | – | 100 µM | 49 µM | – | – | – | – | 3.07 µM | 15 µM | – | – | – | – | – | – | 100% | 100% |
| C=C(c1cc(Cl)cc(Cl)c1OCc1ccccc1)C1COC2(CCCC2)OO1 (stereo not drawn) | – | 2.07 µM | 13.7 µM | – | 72.9 | 2.26 µM | 0.43 | 28.6 µM | 65.6 µM | 0.0316 µM | 0.19 | – | – | – | – | – | – |
| C=C(c1ccc(OC)c(F)c1)C1COC2(CCCCC2)OO1 (stereo not drawn) | – | 6.53 µM | 13.1 µM | – | – | – | 5.77 | 37.7 µM | 15.4 µM | > 0.1 µM | 1.17 | – | – | – | – | – | – |
| C=C(c1ccc(F)c(F)c1)C1COC2(OO1)C1CC3CC(C1)CC2C3 (stereo not drawn) | 0.0414 µM | 4.97 µM | 26.1 µM | 3.39 | 1050 | 12.6 µM | 6.29 | 57.1 µM | 9.48 µM | 0.0123 µM | 0.48 | – | – | – | – | – | – |
| C=C(c1ccc(Cl)c(Cl)c1)C1COC2(OO1)C1CC3CC(C1)CC2C3 (stereo not drawn) | 0.05 µM | 2.93 µM | 34.3 µM | 2.24 | 599 | 13.2 µM | 9.11 | 26.7 µM | 3.36 µM | 0.0224 µM | 0.5 | – | – | – | – | – | – |
